The text below walks through data of patent publication US12247032B2, “Substituted pyrazolo[1,5-a]pyrimidines as inhibitors of JAK kinases” (Genentech, Inc., priority 2019, dated 2025).

SMILES strings stand for the structures.

The experiment deals with T1, Recombinant human JAK2 kinase domain protein (Residues 812-1132) (Homo sapiens, UniProt O60674).
T1 construct: human JAK2 kinase domain protein (Residues 812-1132); made in house; host or cells: insect cells
Kind of experiment: JAK2 biochemical assay (microfluidic mobility shift, peptide phosphorylation). As to conditions: 25 μM ATP, 0.2 nM total JAK2; Ki calculated from Ki app (tight-binding, competitive); read-out: Biochem JAK2 Ki. The procedure, abridged: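 Insect-cell-expressed human JAK1 (1 nM, residues 854-1154) or JAK2 (0.2 nM, residues 812-1132) phosphorylating 1.5 μM 5-FAM peptide Y-1B with 25 μM ATP, pH 7.2 HEPES, 30 min at 22-23 °C; twelve concentrations up to 1000 nM in duplicate. Mobility-shift % conversion fitted to tight-binding quadratic for Ki^app.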

T1 sequence (O60674 812-1132): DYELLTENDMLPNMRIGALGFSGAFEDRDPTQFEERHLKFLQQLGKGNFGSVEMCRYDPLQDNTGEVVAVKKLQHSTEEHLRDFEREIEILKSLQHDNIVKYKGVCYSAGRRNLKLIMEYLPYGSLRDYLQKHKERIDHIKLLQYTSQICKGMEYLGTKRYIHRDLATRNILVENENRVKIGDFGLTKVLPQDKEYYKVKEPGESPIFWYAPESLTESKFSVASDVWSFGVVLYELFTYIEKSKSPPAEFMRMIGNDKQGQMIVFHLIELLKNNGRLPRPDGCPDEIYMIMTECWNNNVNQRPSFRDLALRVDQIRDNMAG

For the molecule `CN(C)[C@H]1C[C@H](N2CC(n3nnc(Cn4cc(NC(=O)c5cnn6cccnc56)c(-c5cc(OC(F)F)ccc5OC(F)F)n4)n3)C2)C1` [Example 70, N-[3-[2,5-bis(difluoromethoxy)phenyl]-1-[[2-[1-[3-(dimethylamino)cyclobutyl]azetidin-3-yl]tetrazol-5-yl]methyl]pyrazol-4-yl]pyrazolo[1,5-a]pyrimidine-3-carboxamide], the Ki is 0.54 nM.

With `CN1CC(N2CC(n3nnc(Cn4cc(NC(=O)c5cnn6cccnc56)c(-c5cc(OC(F)F)ccc5OC(F)F)n4)n3)C2)C1` [Example 78, N-[3-[2,5-bis(difluoromethoxy)phenyl]-1-[[2-[1-(1-methylazetidin-3-yl)azetidin-3-yl]tetrazol-5-yl]methyl]pyrazol-4-yl]pyrazolo[1,5-a]pyrimidine-3-carboxamide; formic acid], the Ki was 0.41 nM.
